Source: patent US20250011316A1, “PEROXIREDOXIN 3 INHIBITORS AND METHODS OF USE FOR TREATING CANCER” (Wake Forest University Health Sciences, priority 2022, published 2025)
Structures can show the parent of a compound that is named as a salt.

Legend:
FIG. 5 (CON'T) [1] = test: FIG. 5 (CON'T)
Protocol: (§1) Table printed on a drawing sheet, FIG. 5 (CON'T)
(§2) The patent's description of the figure: FIG. 5 is a table summarizing the results of Examples 42-44 for various compounds described herein. NT indicates “not tested.” For EC50 values, “A” represents an EC50 less than or equal to 5.0 μM, “B” represents an EC50 from 5.1 μM to 10.0 μM, “C” represents an EC50 from 10.1 μM to 50.0 μM, and “D” represents an EC50 greater than 50.0 μM.
First reader's note: Continued from an earlier sheet of FIG. 5; EC50 is given as classes A-C, and neither these classes nor NT are explained on this sheet.

HMESO mesothelioma cells = test: Cell viability study (crystal violet, 48 h); type: cell-based; details: Homo sapiens, 48 h incubation, read-out: IC50 (Concentration of drug required to kill 50% of cells)
Protocol: Cell Lines were plated in 96-well plates (Corning, Kennebunk, ME, USA) at a density of 2500 cells per well. The following day, cells were treated with test compounds diluted in complete media followed by incubation for 48 h. Post-incubation cells were washed with PBS (Corning Cellgro, Manassas, VA, USA), fixed with 3.0% formaldehyde (Fisher BioReagents, Fair Lawn, NJ, USA) in PBS, and stained for 30 min with 0.1% crystal violet (Acros Organics, Fair Lawn, NJ, USA) in water. Crystal violet stain was removed, and plates were washed with FEO and allowed to dry. To quantify cell viability, plates were imaged using the Lionheart Plate reader (BioTek Instruments, Winooski, VT, USA) and/or analyzed by absorbance at 540 nm (crystal violet dye dissolved in 100% methanol) using the Synergy HTX plate reader (BioTek Instruments, Winooski, VT, USA). To determine the effective cytotoxic concentration (ICso) of test compounds, the data were plotted using a 4-parameter non-linear regression model using GraphPad Prism7 software (GraphPad Software, San Diego, CA, USA).
Cell viability assay data in HMESO mesothelioma cells treated with compounds (1)—HCl or (5) HCl are summarized in the below Table 2. ICso (Concentration of drug required to kill 50% f cells) is shown in […] concentration

FIG. 5 (CON’T) [2] = test: FIG. 5 (CON’T)
Protocol: (§3) Table printed on a drawing sheet, FIG. 5 (CON’T)
as §2

578 cancer cells lines = details: of 578 cancer cells lines tested; Corsello et al. Nature Cancer 2020; cited from earlier work
FIG. 5 (CON'T) [3] = test: FIG. 5 (CON'T); remark: listed apart in the source
Protocol: as §1, §2
First reader's note: Continued from the sheet before: the first body row is the end of a record begun there; EC50 is given as classes A-D whose legend is not printed on this sheet.

[4] = Behaviour of compounds in DMSO and complete tissue culture media (HMESO cell viability assay, FIG. 1); type: physicochemical; details: from DMSO solution
Protocol: FIG. 1: Cell viability assay data in Malignant Mesothelioma (MM) cells (HMESO cell line) treated with compound (1)—HCl or (5)—HCl N=2 technical and 2 biological replicates conducted by 2 different lab technicians. All compounds went into solution in 100% DMSO. (5)—HCl precipitated at concentrations of ˜20-80 μM when added to complete tissue culture media.

[5] = system: Enterococcus hirae (ATCC #10541); test: Antimicrobial Activity Assay (MIC / growth inhibition); type: cell-based; details: E. hirae, overnight at 37° C., MIC determination, n=9
PRX3 = target: T1, PRX3 (Homo sapiens, UniProt P30048); test: Crosslinking study: PRX3 western blot of H-MESO cell lysates; type: cell-based; details: H-MESO cells treated 24 hours; TS at 2.5 or 5 μM; reducing SDS-PAGE, PRX3 western blot (FIG. 3)
T1 construct: endogenous in cells; host or cells: H-MESO malignant mesothelioma cells
T1 sequence (P30048 62-256): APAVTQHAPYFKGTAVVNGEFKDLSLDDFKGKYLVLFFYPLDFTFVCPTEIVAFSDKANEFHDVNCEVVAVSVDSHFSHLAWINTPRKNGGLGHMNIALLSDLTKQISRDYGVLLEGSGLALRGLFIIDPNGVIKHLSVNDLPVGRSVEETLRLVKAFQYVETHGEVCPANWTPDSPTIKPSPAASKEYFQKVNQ
Protocol: Malignant Mesothelioma (MM) cells (H-MESO cell line) were plated into 6-well plates in complete tissue culture media. Cells were allowed to adhere for 24 hours before being treated with indicated concentrations of thiostrepton (TS), (1) or (5) (DMSO Stocks) for 24 hours. Cell lysates were generated using standard RIPA buffer, protein concentrations were determined using a Bradford Assay and 20 μg of total protein per sample were separated by reducing SDS-Polyacrylamide Gel Electrophoresis. Proteins were transferred to a PVDF membrane, blocked with 5% Bovine Serum Albumin (BSA) for 1 hour and incubated with PRX3 primary antibody overnight at 4° C. in IX Tris Buffered Saline with Tween (TBST). Membranes were washed 3X with IX TBST and incubated with horseradish peroxidase conjugated (HRP) secondary antibody for 1 hour at room temperature. Membranes were washed 3x in IX TBST and HRP signal was developed using Enhanced Chemiluminescence and visualized on a GE digital imager.

FIG. 5 (CON’T) [6] = test: FIG. 5 (CON’T); remark: listed apart in the source
Protocol: as §3, §2
First reader's note: Continued from an earlier sheet of FIG. 5; the EC50 classes A-D and NT are not explained on this sheet but only in the patent's figure description.

## C=C(NC(=O)c1ccc(-c2ccc(NC(=O)OC(C)(C)C)cc2)cc1)C(=O)NC(=C)C(=O)OC [compound 69]
FIG. 5 (CON'T) [1]
  Time into solution from powder?: 1 to 2 min

## C=C(NC(=O)C(=C)NC(=O)c1csc(-c2ccc(N)cc2)n1)C(N)=O [(1)-HC1, N-(3-((3-amino-3-oxoprop-1-en-2-yl)amino)-3-oxoprop-1-en-2-yl)-2-(4-aminophenyl)thiazole-4-carboxamide hydrochloride]
HMESO mesothelioma cells
  IC50: 748 µM

## C=C(NC(=O)c1csc(N2CCC(C(=O)NCCCOC)CC2)n1)C(=O)NC(=C)C(=O)OC [compound 61]
FIG. 5 (CON’T) [2]
  Time into solution from powder?: 1 to 2 min

## C=C(NC(=O)C(=C)NC(=O)c1csc(C2=N[C@@H]3c4csc(n4)[C@H]4NC(=O)c5csc(n5)[C@H]([C@](C)(O)[C@@H](C)O)NC(=O)[C@H]5CSC(=N5)/C(=C/C)NC(=O)[C@H]([C@@H](C)O)NC(=O)c5csc(n5)[C@]3(CC2)NC(=O)[C@H](C)NC(=O)C(=C)NC(=O)[C@H](C)NC(=O)[C@H]([C@@H](C)CC)N[C@@H]2C=Cc3c([C@H](C)O)cc(nc3[C@H]2O)C(=O)O[C@@H]4C)n1)C(N)=O [Thiostrepton, thiostrepton]
578 cancer cells lines
  number of tumor cells lines in which meaningful efficacy was shown: 403

## C=C(NC(=O)c1csc(N2C[C@@H](C)N(C(=O)OC(C)(C)C)[C@@H](C)C2)n1)C(=O)NC(=C)C(=O)OC [compound 56]
FIG. 5 (CON'T) [3]
  Time into solution from powder?: 1 to 2 min

## C=C(NC(=O)c1csc(-c2ccc(N)cc2)n1)C(=O)NC(=C)C(=O)OC [(5)—HCl, Methyl 2-(2-(2-(4-aminophenyl)thiazole-4-carboxamido)acrylamido)acrylate hydrochloride]
[4]
  concentrations at which compound precipitated when added to complete tissue culture media: 20 to 80 µM
HMESO mesothelioma cells
  IC50: 1.93 µM

## C=C(NC(=O)C(=C)NC(=O)c1csc(C2=N[C@@H]3c4csc(n4)[C@H]4NC(=O)c5csc(n5)[C@H]([C@](C)(O)[C@@H](C)O)NC(=O)[C@H]5CSC(=N5)/C(=C/C)NC(=O)[C@H]([C@@H](C)O)NC(=O)c5csc(n5)[C@]3(CC2)NC(=O)[C@H](C)NC(=O)C(=C)NC(=O)[C@H](C)NC(=O)[C@H]([C@@H](C)CC)N[C@@H]2C=Cc3c([C@H](C)O)cc(nc3[C@H]2O)C(=O)O[C@@H]4C)n1)C(N)=O [TS, Thiostrepton, reference compound]
[5]
  TS concentrations at which complete growth was observed: < 0.030 µM
  TS concentrations at which no growth was observed: > 0.045 µM
PRX3
  Covalent PRX3 crosslinking (PRX3-X-PRX3): resulted in covalent PRX3 crosslinking
HMESO mesothelioma cells
  IC50: 1.01 µM

## C=C(NC(=O)c1csc(N2CCN(CCCOC)C(=O)C2)n1)C(=O)NC(=C)C(=O)OC [compound 63]
FIG. 5 (CON’T) [6]
  Time into solution from powder?: 1 to 2 min
